Experimental findings from patent US4945102A, “Heterocyclic derivatives and radiosensitizing agents and antiviral agents comprising same as their active component” (Pola Chemical Industries Inc., Japan, priority 1987, dated 1990) are described below.

Where two headings read alike, the source gives them in different places.

Data set [1] in a line: Acute toxicity test. The following applies: for LD50 at 336 h / General Status: mouse, in vivo; for LD50 at 336 h: ICR male mice, 14 days, read-out: LD50/14 (50% death rate over 14 days). It is filed as in vivo. How it is done:
Acute toxicity test and other tests regarding radiosensitising ability and antiviral activity were carried out using the compounds of the present invention.
ICR strain male mice of 5 week old were intravenously or intraperitoneally administered with various compounds each dissolved in a physiological saline or in a physiological saline containing 10% DMSO. The mice were observed over 14 days and 50% death rates (LD50/14) were obtained.

In data set [2] the test system is single cells of EMT-6. Briefly: Radiosensitivity test, in vitro test 1 (single cells of EMT-6, hypoxic). In kind it is cell-based. The following applies: 1.0 mM, single EMT-6 cells, 60Co gamma rays. The source says:
Cells used in the test: single cells of EMT-6
Irradiation: ^60 Co - gamma rays
Cell treatment to hypoxia:
A mixture gas of 95% nitrogen and 5% carbon dioxide was passed through cell suspension.
Determined by counting colonies.
Radiosensitivity enhancement ratio (ER): [formula]

Data set [3] has as its system Spheroids of EMT-6. The data set is described as follows: Radiosensitivity test, in vitro test 2 (spheroids of EMT-6). It is filed as cell-based. The following applies: 1 mM, 37° C. over 30 to 60 minutes, 60Co gamma rays. The protocol:
(b) In vitro test 2 Cells used in the test: Spheroids of EMT-6 Irradiation: ^60 Co - gamma rays Tested compound: Compound (3), 1 mM Determination of radiosensitivity enhancement: Six particles of spheroid having a certain size were taken and placed in a culture solution containing compound (3) having a concentration of 1 mM, and incubated at 37° C. over 30 to 60 minutes, followed by irradiation. The spheroids were treated by trypsin and then the enhancement ratio (ER) was obtained by counting colonies.

Data set [4] relates to EMT-6 tumor. The data set is described as follows: Radiosensitivity in vivo test (EMT-6 tumor). To be noted: 200 mg/kg intraperitoneal 20 minutes prior to whole body 60Co irradiation. More on the design: species or system Balb/c mice. How it is done: Tested compound: compound (3), 200 mg/kg
Compound (3) dissolved in a physiological saline was intraperitoneally administered 20 minutes prior to irradiation.
Irradiation: ^60 Co - gamma rays, whole body irradiation
Determination of radiosensitivity enhancement:
Enhancement ratio (ER) was obtained from irradiation dose and reduction ratio of tumor cells.

Data set [5] deals with Herpes simplex virus type I. Briefly: Antiviral activity test (cytopathic effect in Vero cells). To be noted: one day. Details: key: 0: almost all cells are dead; 1: certain effect of test agent with some dead cells; 2: normal. In kind it is cell-based. How it is done:
(3) Antiviral activity test Virus: Herpes simplex virus type I Cells: Vero (monkey kidney cells) Culture medium: 2% FBS MEM A sample conditioned to contain 2×10^5 /ml of vero cells was cultured at 37° C. in an atmosphere of 5% CO2 for 1 day to obtain a monolayer sample. The sample was infected by HSV virus diluted with PBS (phosphate buffer). Compound (I) was dissolved in DMSO, then adjusted to have concentrations of 100 μg/ml, 50 μg/ml, 10/μg/ml,5,μ/ml and 1 μg/ml by 2% FBS MEM, and served as test agents. The culture cells were added with each agent separately and incubated at 37° C. in a Co2 incubator for one day. The cytopathic effect was observed under microscope. Cells were stained by crystal violet and scored as follows: 0: almost all cells are dead 1: certain effect of test agent with some dead cells 2: normal The results are shown in Table 3.

For `CC(=O)OCC(COC(C)=O)OCn1cnc([N+](=O)[O-])n1` [(2), 1-[2-acetoxy-1-(acetoxymethyl)ethoxy]methyl-3-nitro-1,2,4-triazol], the Dead/Treated in data set [1] (intraperitoneal, 600 mg/kg) is 0/2; in data set [1] (intraperitoneal, 720 mg/kg) it was 0/2; in data set [1] (intraperitoneal, 860 mg/kg) it was 2/2. Further, the LD50 at 336 h in data set [1] (ip, intraperitoneal) is 790 mg/kg.

On to `O=[N+]([O-])c1nccn1COC(CO)CO` [Compound (3), 1-[2-hydroxy-1-(hydroxymethyl)ethoxy]methyl-2-nitroimidazol], for which the Dead/Treated was 0/2 in data set [1] (intravenous, 720 mg/kg) and 0/2 in data set [1] (intravenous, 860 mg/kg). The “General Status” value in data set [1] (iv) is “Calmed down”. Further, in data set [1] (intravenous), the LD50 at 336 h is > 860 mg/kg. Moreover, in data set [2], the “Radiosensitivity enhancement ratio (ER)” value turned out to be 1.70. In addition, the “enhancement ratio (ER)” value in data set [3] and in data set [4] was 1.55 in each case. Besides, the cytopathic effect score was 0 in data set [5] (1 μg/ml); 0 in data set [5] (5 μg/ml); 1 in data set [5] (10 μg/ml); 2 in data set [5] (50 μg/ml); 2 in data set [5] (100 μg/ml).

Turning to `O=[N+]([O-])c1ncn(COC(CO)CO)n1` [(4), 1-[2-hydroxy-1-(hydroxymethyl)ethoxy]methyl-3-nitro-1,2,4-triazol], the Dead/Treated in data set [1] (intravenous, 720 mg/kg) is listed as 0/2; in data set [1] (intravenous, 860 mg/kg), 1/2. The “General Status” value in data set [1] (iv) was “Calmed down”. In data set [1] (intravenous), the LD50 at 336 h came out at 860 mg/kg. Besides, the “Radiosensitivity enhancement ratio (ER)” value in data set [2] is 1.50. In addition, the cytopathic effect score in data set [5] (1 μg/ml) amounted to 0; in data set [5] (5 μg/ml), 0; in data set [5] (10 μg/ml), 1; in data set [5] (50 μg/ml), 2; in data set [5] (100 μg/ml), 2.

Turning to `CC(=O)OCC(COC(C)=O)OCn1ccnc1[N+](=O)[O-]` [(1), 1-[2-acetoxy-1-(acetoxymethyl)ethoxy]methyl-2-nitroimidazol], the Dead/Treated in data set [1] (intraperitoneal, 720 mg/kg) was 0/2; in data set [1] (intraperitoneal, 860 mg/kg) it was 0/2. Besides, the “General Status” value in data set [1] (ip) is reported as “Calmed down”. For the same compound, the LD50 at 336 h in data set [1] (ip, intraperitoneal) is > 860 mg/kg.
